# Reference: PubChem BioAssay (NCI)
#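 Growth conditions: 96-well plates. Treatment: test compound, 48 hours, 5 concentrations. Analysis: linear interpolation between bracketing concentrations; unreached endpoints set to highest concentration. GI50: concentration for 50% inhibition of growth. The concentration for full growth arrest is given as TGI.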
# What was measured:
# Experiment in all cases: NCI tumour cell line growth inhibition, 48 h
# A498 renal = test system: A498 renal
# A549 NSCLC = test system: A549 NSCLC
# ACHN renal = test system: ACHN renal
# BT-549 breast = test system: BT-549 breast
# CAKI-1 renal = test system: CAKI-1 renal
# CCRF-CEM leukemia = test system: CCRF-CEM leukemia
# COLO 205 colon = test system: COLO 205 colon
# DU-145 prostate = test system: DU-145 prostate
# EKVX NSCLC = test system: EKVX NSCLC
# HCC-2998 colon = test system: HCC-2998 colon
# HCT-116 colon = test system: HCT-116 colon
# HCT-15 colon = test system: HCT-15 colon
# HL-60(TB) leukemia = test system: HL-60(TB) leukemia
# HOP-62 NSCLC = test system: HOP-62 NSCLC
# HS 578T breast = test system: HS 578T breast
# HT29 colon = test system: HT29 colon
# IGROV1 ovarian = test system: IGROV1 ovarian
# K-562 leukemia = test system: K-562 leukemia
# KM12 colon = test system: KM12 colon
# LOX IMVI melanoma = test system: LOX IMVI melanoma
# M14 melanoma = test system: M14 melanoma
# MALME-3M melanoma = test system: MALME-3M melanoma
# MCF7 breast = test system: MCF7 breast
# MDA-MB-231 breast = test system: MDA-MB-231 breast
# MDA-MB-435 = test system: MDA-MB-435
# MOLT-4 leukemia = test system: MOLT-4 leukemia
# NCI-H23 lung = test system: NCI-H23 lung
# NCI-H460 lung = test system: NCI-H460 lung
# NCI-H522 lung = test system: NCI-H522 lung
# NCI/ADR-RES ovarian = test system: NCI/ADR-RES ovarian
# OVCAR-3 ovarian = test system: OVCAR-3 ovarian
# OVCAR-4 ovarian = test system: OVCAR-4 ovarian
# OVCAR-5 ovarian = test system: OVCAR-5 ovarian
# OVCAR-8 ovarian = test system: OVCAR-8 ovarian
# PC-3 prostate = test system: PC-3 prostate
# RPMI-8226 leukemia = test system: RPMI-8226 leukemia
# RXF 393 renal = test system: RXF 393 renal
# SF-268 CNS = test system: SF-268 CNS
# SF-295 CNS = test system: SF-295 CNS
# SF-539 CNS = test system: SF-539 CNS
# SK-MEL-2 melanoma = test system: SK-MEL-2 melanoma
# SK-MEL-28 melanoma = test system: SK-MEL-28 melanoma
# SK-MEL-5 melanoma = test system: SK-MEL-5 melanoma
# SK-OV-3 ovarian = test system: SK-OV-3 ovarian
# SN12C renal = test system: SN12C renal
# SNB-19 CNS = test system: SNB-19 CNS
# SNB-75 CNS = test system: SNB-75 CNS
# SW-620 colon = test system: SW-620 colon
# T-47D breast = test system: T-47D breast
# TK-10 renal = test system: TK-10 renal
# U251 CNS = test system: U251 CNS
# UACC-257 melanoma = test system: UACC-257 melanoma
# UACC-62 melanoma = test system: UACC-62 melanoma
# UO-31 renal = test system: UO-31 renal
# 786-0 renal = test system: 786-0 renal
# NCI-H226 lung = test system: NCI-H226 lung
# SR leukemia = test system: SR leukemia
smiles,measurement,setting,value
COc1ccc(N2CN(C)CSC2=S)cc1,TGI,A498 renal,> 100 µM
same,TGI,A549 NSCLC,> 100 µM
same,TGI,ACHN renal,> 100 µM
same,TGI,BT-549 breast,> 100 µM
same,TGI,CAKI-1 renal,> 100 µM
same,TGI,CCRF-CEM leukemia,87.2 µM
same,TGI,COLO 205 colon,> 100 µM
same,TGI,DU-145 prostate,> 100 µM
same,TGI,EKVX NSCLC,> 100 µM
same,TGI,HCC-2998 colon,> 100 µM
same,TGI,HCT-116 colon,> 100 µM
same,TGI,HCT-15 colon,> 100 µM
same,TGI,HL-60(TB) leukemia,> 100 µM
same,TGI,HOP-62 NSCLC,61.5 µM
same,TGI,HS 578T breast,> 100 µM
same,TGI,HT29 colon,> 100 µM
same,TGI,IGROV1 ovarian,> 100 µM
same,TGI,K-562 leukemia,> 100 µM
same,TGI,KM12 colon,> 100 µM
same,TGI,LOX IMVI melanoma,> 100 µM
same,TGI,M14 melanoma,> 100 µM
same,TGI,MALME-3M melanoma,> 100 µM
same,TGI,MCF7 breast,> 100 µM
same,TGI,MDA-MB-231 breast,> 100 µM
same,TGI,MDA-MB-435,> 100 µM
same,TGI,MOLT-4 leukemia,> 100 µM
same,TGI,NCI-H23 lung,> 100 µM
same,TGI,NCI-H460 lung,> 100 µM
same,TGI,NCI-H522 lung,> 100 µM
same,TGI,NCI/ADR-RES ovarian,> 100 µM
same,TGI,OVCAR-3 ovarian,24.4 µM
same,TGI,OVCAR-4 ovarian,> 100 µM
same,TGI,OVCAR-5 ovarian,> 100 µM
same,TGI,OVCAR-8 ovarian,> 100 µM
same,TGI,PC-3 prostate,> 100 µM
same,TGI,RPMI-8226 leukemia,> 100 µM
same,TGI,RXF 393 renal,> 100 µM
same,TGI,SF-268 CNS,> 100 µM
same,TGI,SF-295 CNS,86.2 µM
same,TGI,SF-539 CNS,> 100 µM
same,TGI,SK-MEL-2 melanoma,> 100 µM
same,TGI,SK-MEL-28 melanoma,> 100 µM
same,TGI,SK-MEL-5 melanoma,> 100 µM
same,TGI,SK-OV-3 ovarian,66.8 µM
same,TGI,SN12C renal,> 100 µM
same,TGI,SNB-19 CNS,> 100 µM
same,TGI,SNB-75 CNS,> 100 µM
same,TGI,SW-620 colon,> 100 µM
same,TGI,T-47D breast,> 100 µM
same,TGI,TK-10 renal,> 100 µM
same,TGI,U251 CNS,> 100 µM
same,TGI,UACC-257 melanoma,> 100 µM
same,TGI,UACC-62 melanoma,> 100 µM
same,TGI,UO-31 renal,> 100 µM
C=C(C)[C@@H]1C/C=C(/CO)CC[C@H]2O[C@]2(C)CC/C=C(\C)CC1,GI50,786-0 renal,15.4 µM
same,TGI,786-0 renal,34.2 µM
same,GI50,A498 renal,10.4 µM
same,TGI,A498 renal,24.3 µM
same,GI50,A549 NSCLC,16.1 µM
same,TGI,A549 NSCLC,50.3 µM
same,GI50,ACHN renal,29.5 µM
same,TGI,ACHN renal,> 100 µM
same,GI50,BT-549 breast,17.5 µM
same,TGI,BT-549 breast,34.7 µM
same,GI50,CAKI-1 renal,17.1 µM
same,TGI,CAKI-1 renal,34.8 µM
same,GI50,CCRF-CEM leukemia,12.5 µM
same,TGI,CCRF-CEM leukemia,34.8 µM
same,GI50,COLO 205 colon,13.2 µM
same,TGI,COLO 205 colon,26.7 µM
same,GI50,DU-145 prostate,18.1 µM
same,TGI,DU-145 prostate,60.5 µM
same,GI50,EKVX NSCLC,12.9 µM
same,TGI,EKVX NSCLC,36 µM
same,GI50,HCC-2998 colon,19.8 µM
same,TGI,HCC-2998 colon,40.4 µM
same,GI50,HCT-116 colon,19.3 µM
same,TGI,HCT-116 colon,38.3 µM
same,GI50,HCT-15 colon,23.6 µM
same,TGI,HCT-15 colon,51.7 µM
same,GI50,HL-60(TB) leukemia,8.12 µM
same,TGI,HL-60(TB) leukemia,24 µM
same,GI50,HOP-62 NSCLC,15 µM
same,TGI,HOP-62 NSCLC,34.4 µM
same,GI50,HS 578T breast,18.2 µM
same,TGI,HS 578T breast,38.7 µM
same,GI50,HT29 colon,14.5 µM
same,TGI,HT29 colon,31.6 µM
same,GI50,IGROV1 ovarian,18.6 µM
same,TGI,IGROV1 ovarian,41.3 µM
same,GI50,K-562 leukemia,5.73 µM
same,TGI,K-562 leukemia,26.1 µM
same,GI50,KM12 colon,16.1 µM
same,TGI,KM12 colon,32.4 µM
same,GI50,LOX IMVI melanoma,15.4 µM
same,TGI,LOX IMVI melanoma,30.3 µM
same,GI50,M14 melanoma,15 µM
same,TGI,M14 melanoma,29.9 µM
same,GI50,MALME-3M melanoma,12.9 µM
same,TGI,MALME-3M melanoma,28.5 µM
same,GI50,MCF7 breast,15.7 µM
same,TGI,MCF7 breast,31.8 µM
same,GI50,MDA-MB-231 breast,10.7 µM
same,TGI,MDA-MB-231 breast,29.7 µM
same,GI50,MDA-MB-435,13.5 µM
same,TGI,MDA-MB-435,29.2 µM
same,GI50,MOLT-4 leukemia,12.7 µM
same,TGI,MOLT-4 leukemia,32 µM
same,GI50,NCI-H226 lung,19.7 µM
same,TGI,NCI-H226 lung,43.7 µM
same,GI50,NCI-H23 lung,20.7 µM
same,TGI,NCI-H23 lung,66.9 µM
same,GI50,NCI-H460 lung,11.5 µM
same,TGI,NCI-H460 lung,27 µM
same,GI50,NCI-H522 lung,16.1 µM
same,TGI,NCI-H522 lung,32.1 µM
same,GI50,NCI/ADR-RES ovarian,29.9 µM
same,TGI,NCI/ADR-RES ovarian,> 100 µM
same,GI50,OVCAR-3 ovarian,22.2 µM
same,TGI,OVCAR-3 ovarian,42.9 µM
same,GI50,OVCAR-4 ovarian,16.3 µM
same,TGI,OVCAR-4 ovarian,34.1 µM
same,GI50,OVCAR-5 ovarian,24.7 µM
same,TGI,OVCAR-5 ovarian,> 100 µM
same,GI50,OVCAR-8 ovarian,24 µM
same,TGI,OVCAR-8 ovarian,58.4 µM
same,GI50,PC-3 prostate,11.8 µM
same,TGI,PC-3 prostate,30.9 µM
same,GI50,RXF 393 renal,18.3 µM
same,TGI,RXF 393 renal,33.4 µM
same,GI50,SF-268 CNS,19.9 µM
same,TGI,SF-268 CNS,38.2 µM
same,GI50,SF-295 CNS,11.6 µM
same,TGI,SF-295 CNS,24.5 µM
same,GI50,SF-539 CNS,18 µM
same,TGI,SF-539 CNS,33.7 µM
same,GI50,SK-MEL-2 melanoma,15.3 µM
same,TGI,SK-MEL-2 melanoma,31.3 µM
same,GI50,SK-MEL-28 melanoma,14.3 µM
same,TGI,SK-MEL-28 melanoma,32.1 µM
same,GI50,SK-MEL-5 melanoma,12.7 µM
same,TGI,SK-MEL-5 melanoma,25.5 µM
same,GI50,SN12C renal,14.6 µM
same,TGI,SN12C renal,29 µM
same,GI50,SNB-19 CNS,18 µM
same,TGI,SNB-19 CNS,33.8 µM
same,GI50,SNB-75 CNS,12.1 µM
same,TGI,SNB-75 CNS,31.3 µM
same,GI50,SR leukemia,17.2 µM
same,TGI,SR leukemia,38.6 µM
same,GI50,SW-620 colon,26.3 µM
same,TGI,SW-620 colon,61.5 µM
same,GI50,T-47D breast,17.4 µM
same,TGI,T-47D breast,47.8 µM
same,GI50,TK-10 renal,9.74 µM
same,TGI,TK-10 renal,32.8 µM
same,GI50,U251 CNS,19.9 µM
same,TGI,U251 CNS,36.2 µM
same,GI50,UACC-257 melanoma,22 µM
same,TGI,UACC-257 melanoma,43.6 µM
same,GI50,UACC-62 melanoma,15.1 µM
same,TGI,UACC-62 melanoma,35.6 µM
same,GI50,UO-31 renal,13.6 µM
same,TGI,UO-31 renal,29.9 µM
